Consider 16 molecules from PubChem BioAssay (NCI).

The structures appear in SMILES notation.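 1) Cells in 96-well plates. 2) Compound, 48 h, 5 concentrations. 3) Linear interpolation between surrounding doses. 4) Unreached endpoint = highest concentration. GI50: concentration for 50% inhibition of growth. Definition used: TGI = concentration required for complete inhibition of growth.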

Some test systems named below: NCI/ADR-RES ovarian; ACHN renal; NCI-H23 lung; OVCAR-5 ovarian; OVCAR-8 ovarian; CCRF-CEM leukemia; EKVX NSCLC; HL-60(TB) leukemia; SR leukemia; MDA-N.
What all share (test): NCI anticancer screen, dose series, 48 h

As for `N=C(N)c1ccc(-c2ccc(-c3cccs3)s2)cc1`, the GI50 is 1.94 µM with NCI/ADR-RES ovarian; 1.7 µM with ACHN renal; 1.98 µM in the test on NCI-H23 lung; 1.17 µM with OVCAR-5 ovarian; 1.79 µM in the test with OVCAR-8 ovarian. Moreover, the TGI in the test with NCI/ADR-RES ovarian was 4.49 µM; with ACHN renal, 3.14 µM; with NCI-H23 lung, 4.86 µM; in the test on OVCAR-5 ovarian it was 2.68 µM; with OVCAR-8 ovarian it was 4.79 µM.
As for `Cc1cn([C@@H]2C[C@H](CO)[C@@H](O)C2)c(=O)[nH]c1=O`, the TGI in the test with CCRF-CEM leukemia, in the test with ACHN renal, in the test on EKVX NSCLC, with NCI-H23 lung, with OVCAR-5 ovarian and in the test with OVCAR-8 ovarian was above 100 µM in each case. Further, the TGI with HL-60(TB) leukemia is above 100 µM.
In the case of `Cn1ccnc1C(O)(c1nccn1C)c1nccn1C`, the TGI in the test with SR leukemia, in the test with ACHN renal, in the test on EKVX NSCLC, in the test on NCI-H23 lung, in the test on OVCAR-5 ovarian and in the test on OVCAR-8 ovarian was above 100 µM each time. Besides, in the test on HL-60(TB) leukemia, the TGI was above 100 µM.
Take `O=C(NCCCN(CCCCN(CCCNC(=O)C(F)(F)F)Cc1ccc2ccccc2c1)Cc1ccc2ccccc2c1)C(F)(F)F`: the TGI with SR leukemia was 7.18 µM; in the test with NCI/ADR-RES ovarian, above 100 µM; in the test with CCRF-CEM leukemia it was above 100 µM; in the test with ACHN renal it was above 100 µM; in the test with EKVX NSCLC it was above 100 µM; in the test on OVCAR-5 ovarian, above 100 µM. In the test on OVCAR-8 ovarian, this molecule registered a TGI above 100 µM.
Consider `O=C(CN(c1ccccc1)c1ccccc1)N1c2ccccc2C2C=CC=CC21` (centres undefined), for which the TGI was above 21.4 µM in the test with SR leukemia; above 36.3 µM in the test with CCRF-CEM leukemia; above 59.1 µM in the test on ACHN renal; above 59.4 µM with EKVX NSCLC; 53.5 µM in the test with NCI-H23 lung; above 57.8 µM with OVCAR-5 ovarian. Moreover, the TGI with OVCAR-8 ovarian worked out at 53.5 µM; in the test on HL-60(TB) leukemia, 25.7 µM.
Turning to `COc1c(O)c2c3c(c(C)cc(O)c3c1O)C(=O)C(O)(C(C)(C)C(C)=O)C2=O` (centres undefined), the TGI in the test with CCRF-CEM leukemia, in the test on ACHN renal, in the test with NCI-H23 lung, in the test with OVCAR-5 ovarian, in the test with OVCAR-8 ovarian and in the test on HL-60(TB) leukemia was above 100 µM throughout.
For `O=c1ccn(C2OC(CO)C(P(=O)(O)O)C2O)c(=O)[nH]1` (centres undefined), the TGI in the test with SR leukemia, with CCRF-CEM leukemia, in the test with ACHN renal, in the test with EKVX NSCLC, in the test on NCI-H23 lung and with OVCAR-5 ovarian was above 100 µM in each case. Also, the TGI in the test on OVCAR-8 ovarian, in the test with HL-60(TB) leukemia and with MDA-N was above 100 µM each time.
`COC(=O)/C(=N/O)C(C(=O)C=C(C)C)C(=O)C(=O)Nc1nc2ccc([N+](=O)[O-])cc2s1` (centres undefined): the TGI was above 100 µM with SR leukemia; 74.7 µM with CCRF-CEM leukemia; 67.1 µM with ACHN renal; 57.8 µM with EKVX NSCLC; 83.2 µM in the test on NCI-H23 lung; above 100 µM in the test with OVCAR-5 ovarian. Besides, the TGI with OVCAR-8 ovarian and in the test on HL-60(TB) leukemia was above 100 µM in each case.
With `O=C1NCCS(=O)(=O)N[C@@H](CC2=CC=CCC2)C(=O)N2CCCC12` (some centres undefined), the TGI in the test on SR leukemia, in the test on CCRF-CEM leukemia, with ACHN renal, in the test on EKVX NSCLC, with NCI-H23 lung and with OVCAR-5 ovarian was above 100 µM throughout. Further, the TGI in the test on OVCAR-8 ovarian and in the test on HL-60(TB) leukemia was above 100 µM throughout.
For the molecule `Cc1cccc(C2=C/C(=C(\SS/C(C(=O)c3ccc(OCC(=O)O)c(Cl)c3Cl)=C3\C=C(c4cccc(C)c4)SS3)C(=O)c3ccc(OCC(=O)O)c(Cl)c3Cl)SS2)c1`, the TGI was 19.4 µM with CCRF-CEM leukemia; 37.7 µM with ACHN renal; above 100 µM with EKVX NSCLC; 38.7 µM in the test on NCI-H23 lung; above 86.2 µM in the test with OVCAR-5 ovarian; above 73.6 µM in the test with OVCAR-8 ovarian. The TGI in the test with HL-60(TB) leukemia is 4.71 µM.
As to `CSC(=Nc1ccccc1)N(c1ccccc1)c1nc(=[N+](C)C)ss1`, the TGI with SR leukemia stood at 8.01 µM; in the test with CCRF-CEM leukemia, 4.48 µM; in the test on ACHN renal, 16.9 µM; with EKVX NSCLC, 29.5 µM; with NCI-H23 lung, 19.8 µM; in the test with OVCAR-5 ovarian it was 28.6 µM. For the same molecule, the TGI in the test with OVCAR-8 ovarian is 6.19 µM; in the test with HL-60(TB) leukemia, 3.2 µM.
Regarding `O=C(NC(COC(=O)C(Cc1ccccc1)NC(=O)c1ccccc1)Cc1ccccc1)c1ccccc1` (centres undefined), the TGI in the test on SR leukemia, in the test with ACHN renal, with EKVX NSCLC, with NCI-H23 lung, with OVCAR-5 ovarian and in the test with OVCAR-8 ovarian was above 50 µM each time. In the test with HL-60(TB) leukemia, this molecule registered a TGI above 50 µM.
Regarding `CCN1CCCC(NCc2c3ccccc3c(CNC3CCCN(CC)C3)c3ccccc23)C1` (centres undefined), the TGI is 79.7 µM in the test on NCI/ADR-RES ovarian; 41.4 µM in the test with CCRF-CEM leukemia; 35.9 µM with EKVX NSCLC; 34.8 µM with NCI-H23 lung; 19.8 µM with OVCAR-5 ovarian; above 74.4 µM in the test on OVCAR-8 ovarian. Moreover, the TGI with HL-60(TB) leukemia was determined as 22.7 µM.
Consider `COc1ccc(-c2oc(/C=N/NC(N)=S)c([N+](=O)[O-])c2-c2ccc(OC)c(OC)c2)cc1OC`, for which the TGI in the test on ACHN renal was 76.3 µM; in the test on EKVX NSCLC it was 80.4 µM; in the test with NCI-H23 lung, above 100 µM; with OVCAR-5 ovarian it was above 100 µM; in the test on OVCAR-8 ovarian, 81.8 µM; in the test on HL-60(TB) leukemia it was 55 µM.
With `COc1cc2nc(-c3cccs3)oc(=O)c2cc1OC`, the TGI in the test with SR leukemia, in the test with NCI/ADR-RES ovarian, in the test with CCRF-CEM leukemia, with ACHN renal, in the test with EKVX NSCLC and in the test with NCI-H23 lung was above 100 µM in each case. In addition, the TGI with OVCAR-5 ovarian, in the test with OVCAR-8 ovarian and with HL-60(TB) leukemia was above 100 µM each time.
Turning to `CC1=NN(C(=O)CC(=O)Nc2ccccc2F)C(=O)C1N=Nc1ccccc1[N+](=O)[O-]` (centres undefined), the TGI in the test with CCRF-CEM leukemia, in the test on EKVX NSCLC, in the test with NCI-H23 lung, in the test with OVCAR-5 ovarian and with OVCAR-8 ovarian was above 100 µM in each case.
